Laboratory results as given in patent US9730906B2, “α-derivatives of cis-monounsaturated fatty acids for use as medicines” (UNIVERSITAT DE LES ILLES BALEARS, priority 2008, dated 2017).

Experiments:
[1] = system: Human glioma cells (U118); assay: Differentiation of human glioma cells (U118); assay type: cell-based; settings: 200 μM
Text: FIG. 16B. Human glioma cells (U118) are astrocytes of the central nervous system ([…]) that have lost their differentiation (Control). […] This differentiating activity can be involved in neuroregenerative processes necessary for recovery of motor activity.
This effect may be due to the induction of neural projection sprouting necessary to re-establish connections lost by the nerve fibre lesion.

PC3 = assay: Effect of OHOD on cancer cells in culture (Table 2); assay type: cell-based, human; design: key to Anti-tumour effect: + [inhibition of growth]; ++ [total halt of growth]; +++ [total removal of tumour cells]; settings: PC3, Prostate
Procedure: (§1) Also, a series of α-derivatives of cis-monounsaturated fatty acids were used to investigate their effectiveness in cancer treatment. Two types of experiment were performed. Firstly, the dependency of the anti-tumour effect on concentration was investigated. To perform these experiments, human lung cancer cells (A549) were cultivated in RPMI medium, supplemented with 10% foetal bovine […], 10 mM Hepes (pH 7.4), 2 mM glutamine, 2 g/l bicarbonate, 1 g/l glucose, 100 units/ml penicillin, 0.1 mg/ml streptomycin, 0.25 μg/ml Amphotericin B, at 37° C. and in the presence of 5% CO2. In a first experimental series, these cells were treated with various concentrations (0-400 μM) of OHOD and MOD11 and the number of cells was determined by flow cytometry (FIG. 3A). […] In a second series, the anti-tumour effectiveness on A549 lung cancer cells was investigated at a single concentration (150 μM) and a time of 48 hours (FIG. 3B). […] Obviously, among the previous molecules, some lacked both modifications on the α-carbon and the double bond in cis configuration (EO, HDO, ODO) and had no therapeutic effect.
(§2) In a second experimental series, designed to discover whether these molecules are effective in treatment of different types of tumours, the effect of OHOD at various concentrations on human cells of different types of cancer was studied. These experiments were performed as described before, except that the M220 and HT-29 cell lines were cultured in DMEM medium and the MDA-MB-231 line was incubated in Leibowitz L-15 medium supplemented with 15% foetal bovine […]. […] Where the nature of the tumour process requires, application can be topical (use on the skin of active products for the treatment of melanoma and other cutaneous abnormalities of cancerous nature), which can be considered as cosmetic treatments when attempts are made to correct aesthetic defects.

HL-60 = assay: as above; assay type: cell-based, human; design: key to Anti-tumour effect: + [inhibition of growth]; ++ [total halt of growth]; +++ [total removal of tumour cells]; settings: HL-60, Myel-Leukaemia
Procedure: as §1, §2

C-6 = assay: as above; assay type: cell-based, human; design: key to Anti-tumour effect: + [inhibition of growth]; ++ [total halt of growth]; +++ [total removal of tumour cells]; settings: C-6, Glio-Brain
Procedure: as §1, §2

U87-MG = assay: as above; assay type: cell-based, human; design: key to Anti-tumour effect: + [inhibition of growth]; ++ [total halt of growth]; +++ [total removal of tumour cells]; key to Mechanism of action: P [anti-proliferative]; D [differentiation]; A [apoptosis]; settings: Glioma
Procedure: as §1, §2

HeLa = assay: as above; assay type: cell-based, human; design: key to Anti-tumour effect: + [inhibition of growth]; ++ [total halt of growth]; +++ [total removal of tumour cells]; key to Mechanism of action: P [anti-proliferative]; D [differentiation]; A [apoptosis]; settings: Cervix
Procedure: as §1, §2

| SMILES | differentiation of glioma cells [1] | Anti-tumour effect (PC3) | Mechanism of action (PC3) | Anti-tumour effect (HL-60) | Mechanism of action (HL-60) | Anti-tumour effect (C-6) | Mechanism of action (C-6) | Anti-tumour effect (U87-MG) | Mechanism of action (U87-MG) | Anti-tumour effect (HeLa) | Mechanism of action (HeLa) |
| --- | --- | --- | --- | --- | --- | --- | --- | --- | --- | --- | --- |
| CCCCCCCC/C=C\CCCCCCC(O)C(=O)[O-].[Na+] (centres unmarked) [Na-OHOD] | differentiate and develop towards the glial phenotype |  |  |  |  |  |  |  |  |  |  |
| CCCCCCCC/C=C\CCCCCCC(O)C(=O)O (stereo not drawn) [OHOD, α-Hydroxy-cis-Δ9-octadecenoic] |  | +++ | P A | +++ | P D A | +++ | P D | +++ | D | +++ | A |
